Test results published in US10774083B2, “Heterocyclic amide compound” (TAKEDA PHARMACEUTICAL COMPANY LIMITED, priority 2016, dated 2020).

Legend:
[1] = biological target: T1, human PRS protein (His-Avi-hEPRS (998-1512)) (Homo sapiens, UniProt P07814); experiment: PRS inhibitory activity ([32P]pyrophosphate exchange enzyme assay); type: biochemical; conditions: 300 nM test compound; for inhibition at 0.3 µM: read-out: inhibitory rate (%) of PRS
T1 construct: to construct His-Avi-hEPRS (998-1512) expression plasmid; His tag (N); Avi tag (N); TEV cleavage site (ENLYFQG, then S; inferred from the forward primer hEPRS-TEV-NheF) (N); made in house; host or cells: E. coli BL21(DE3)
T1 sequence (P07814 998-1512 limits assumed): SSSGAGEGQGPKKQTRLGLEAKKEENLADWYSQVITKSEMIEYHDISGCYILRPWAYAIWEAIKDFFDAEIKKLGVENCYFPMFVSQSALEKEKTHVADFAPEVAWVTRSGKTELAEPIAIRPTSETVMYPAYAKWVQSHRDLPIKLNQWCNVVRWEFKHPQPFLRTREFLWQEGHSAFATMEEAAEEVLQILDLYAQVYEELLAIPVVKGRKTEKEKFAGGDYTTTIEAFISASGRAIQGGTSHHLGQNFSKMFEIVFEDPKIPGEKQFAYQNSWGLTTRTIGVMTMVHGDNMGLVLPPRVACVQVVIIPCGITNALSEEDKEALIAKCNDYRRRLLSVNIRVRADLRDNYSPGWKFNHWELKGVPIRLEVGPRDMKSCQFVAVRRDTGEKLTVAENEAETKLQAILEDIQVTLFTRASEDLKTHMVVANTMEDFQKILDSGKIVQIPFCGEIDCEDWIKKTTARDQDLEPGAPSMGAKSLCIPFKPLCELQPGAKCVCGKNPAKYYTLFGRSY
Method: The PRS inhibitory activity of the compounds of the present invention was evaluated by the following method.
An expression plasmid of Catalytic Domain of human EPRS was obtained by PCR using human skeletal muscle cDNA Library (Takara Bio Inc.) as a template and 2 kinds of Primers 5′-[…]-3′ (hEPRS-TEV-NheF) (SEQ ID NO: 1) and 5′-[…]-3′ (hEPRS-St-Not-R) (SEQ ID NO: 2). PCR was performed using PrimeStar GXL DNA Polymerase (Takara Bio Inc.) and included (1) 98° C., 1 min, (2) 35 cycles of 98° C., 10 sec, 65° C., 10 sec, 72° C., 1 min, and (3) reaction at 72° C., 1 min. This was cleaved with Nhe I and Not I (Takara Bio Inc.) and inserted using Ligation High (TOYOBO CO., LTD.) into the Nhe I/Not I site of pET21a (Novagen) with His-Avitag inserted thereinto. This was introduced into ECOS JM109 (NIPPON GENE CO., LTD.) to construct His-Avi-hEPRS (998-1512) expression plasmid.
Recombinant human PRS protein was prepared by transforming the His-Avi-hEPRS (998-1512) expression plasmid prepared above into ECOS Competent E. coli BL21(DE3) (NIPPON GENE CO., LTD.). Escherichia coli obtained by transformation was inoculated into 300 mL of LB medium (1% peptone, 0.5% yeast extract, 0.5% sodium chloride, 0.01% ampicillin) and cultured at 30° C. for 16 hr. The obtained culture medium was transferred into a jar culture tank charged with 6 L of the main fermentation medium (0.3% potassium dihydrogen phosphate, 0.6% disodium hydrogen phosphate, 0.1% ammonium chloride, 0.05% sodium chloride, 0.024% magnesium sulfate, 0.02% NEWPOL LB-625, 1.5% sorbitol, 1.5% casamino acid, 0.5% yeast extract, 0.01% ampicillin) and culturing was started at 37° C., quantity of airflow 5 L/min, stirring rotating speed 400 rpm. At the time point when the turbidity of the culture medium reached about 550 Klett units, the culture temperature was lowered to 16° C., isopropyl-β-D-thiogalactopyranoside (IPTG) was added to the final concentration 0.1 mM, and culturing was performed for another 16 hr to induce expression of human PRS. After completion of culturing, the culture medium was centrifuged at 5,000 rpm for 10 min. The obtained human PRS expressing Escherichia coli was suspended in a buffer containing 50 mM Tris-HCl (pH 8.0), 150 mM NaCl, 1 mM DTT, 5 U/ml Benzonase, 20 mM Imidazole and sonicated using Sonifier (BRANSON). The homogenate was centrifuged (33,000×G, 60 min, Beckman Coulter), the obtained supernatant was subjected to adsorption by passage through Ni-NTA Superflow (QIAGEN) column equilibrated in advance with 50 mM Tris-HCl (pH 8.0), 300 mM NaCl, 1 mM DTT, and elution was performed with a buffer containing 50 mM Tris-HCl (pH 8.0), 300 mM NaCl, 1 mM DTT, 250 mM Imidazole. Furthermore, gel filtration was performed using Superdex200 pg column equilibrated in advance with a buffer containing 50 mM Tris-HCl (pH 8.0), 150 mM NaCl, 1 mM DTT, 10% glycerol to give purified human PRS protein. The protein concentration was measured using BCA Protein Assay Kit (PIERCE) and BSA as the standard.
A test compound was dissolved in 5 μL of an assay buffer (50 mM Tris-HCl (pH 7.5), 20 mM KCl, 1 mM DTT, 0.01% Tween 20) and incubated for 60 min with 5 μL of 40 nM human PRS protein dissolved in the assay buffer containing 40 mM MgCl2. An enzyme reaction of the human PRS protein was started by adding 10 μL of a substrate solution containing 300 μM ATP, 160 μM L-Proline, 400 μM pyrophosphate, [^32P]pyrophosphate (PerkinElmer) prepared to 1 MBq/mL. After incubation at room temperature for 30 min, the reaction was discontinued by adding 50 μL of discontinuation/washing solution (1M HCl, 200 mM sodium pyrophosphate) to the reaction mixture. The reaction solution was transferred to a filter plate (Merck Millipore, Billerica, Mass.) previously added with 200 μL of charcoal solution (0.5% HCl solution containing 10% charcoal (w/v)). […]

[2] = system: human ovarian cancer cells A2780; experiment: proliferation inhibitory activity against human ovarian cancer cell A2780 (CellTiter-Glo); type: cell-based; conditions: A2780, 72 h, 1 μM test compound, 3 days of culture, read-out: proliferation inhibitory rate (%) of A2780 cells
Method: The proliferation inhibitory activity of the compound of the present invention against human ovarian cancer cell A2780 was evaluated by the following method.
Human ovarian cancer cells A2780 were seeded in a 384 well culture plate at 1000 cells in 30 μL of medium per well by using RPMI-1640 medium (Wako Pure Chemical Industries, Ltd.) containing 10% fetal bovine serum and penicillin/streptomycin. The next day, 10 μL of RPMI-1640 medium containing the test compound was added to the cells. After 3 days of culture, 20 μL of CellTiter-Glo Luminescent Cell Viability Assay solution (Promega) was added. The luminescence signal was measured using EnVision (PerkinElmer) and the inhibitory rate (%) of the test compound was calculated with a well free of seeding of cell as 100% inhibition.

inhibition at 0.3 µM [1] [%]	inhibitory rate (%) of PRS ([1]; 0.3 µM) [%]	Compound	inhibition at 1 µM [2] [%]
100	–	Cn1cc(-c2cc(F)cc(CNC(=O)c3nccc4nc(C5CCOC5)n(C)c34)c2)cn1 (centres unmarked) [Example 117, N-(3-fluoro-5-(1-methyl-1H-pyrazol-4-yl)benzyl)-3-methyl-2-(tetrahydrofuran-3-yl)-3H-imidazo[4,5-c]pyridine-4-carboxamide]	78
102	–	Cn1cc(-c2cc(F)c(F)c(CNC(=O)c3ncnc4nc(C5CCCC5)n(C)c34)c2)cn1 [Example 5, 8-cyclopentyl-N-(2,3-difluoro-5-(1-methyl-1H-pyrazol-4-yl)benzyl)-7-methyl-7H-purine-6-carboxamide]	98
99	–	COc1nc(C(=O)NCc2cc(F)cc(-c3cnn(C)c3)c2)c2[nH]c(C3CCCC3)nc2n1 [Example 18, 8-cyclopentyl-N-(3-fluoro-5-(1-methyl-1H-pyrazol-4-yl)benzyl)-2-methoxy-7H-purine-6-carboxamide]	77
97	–	Cn1cc2c(CNC(=O)c3ncnc4nc(C5CCCC5)[nH]c34)cccc2n1 [Example 10, 8-cyclopentyl-N-((2-methyl-2H-indazol-4-yl)methyl)-7H-purine-6-carboxamide]	55
98	–	O=C(NCc1ccccc1Cl)c1ncnc2nc(C3CCCC3)[nH]c12 [Example 1, N-(2-chlorobenzyl)-8-cyclopentyl-7H-purine-6-carboxamide]	60
96	–	CC(C)c1nc2ccnc(C(=O)NCc3cc(F)cc(-c4cnn(C)c4)c3)c2[nH]1 [Example 99, N-(3-fluoro-5-(1-methyl-1H-pyrazol-4-yl)benzyl)-2-isopropyl-3H-imidazo[4,5-c]pyridine-4-carboxamide]	–
98	–	O=C(NCc1cccc(Br)c1)c1nccc2nc(C3CCCC3)[nH]c12 [Example 82, N-(3-bromobenzyl)-2-cyclopentyl-3H-imidazo[4,5-c]pyridine-4-carboxamide]	–
91	–	Cc1cc(N2CCC(C#N)(CC3CC3)C2=O)cc(C(=O)NCc2cc(F)cc(-c3cnn(C)c3)c2)n1 (centres unmarked) [Example 230, 4-(3-cyano-3-(cyclopropylmethyl)-2-oxopyrrolidin-1-yl)-N-(3-fluoro-5-(1-methyl-1H-pyrazol-4-yl)benzyl)-6-methylpyridine-2-carboxamide]	–
–	99	Cn1cc(-c2cc(F)cc(CNC(=O)c3ncnc4nc(C5COCCO5)[nH]c34)c2)cn1 (centres unmarked) [Example 33, 8-(1,4-dioxan-2-yl)-N-(3-fluoro-5-(1-methyl-1H-pyrazol-4-yl)benzyl)-7H-purine-6-carboxamide]	–
102	–	Cn1cc(-c2cc(F)cc(CNC(=O)c3nccc4nc(C5CCCC5)n(C5CC5)c34)c2)cn1 [Example 108, 2-cyclopentyl-3-cyclopropyl-N-(3-fluoro-5-(1-methyl-1H-pyrazol-4-yl)benzyl)-3H-imidazo[4,5-c]pyridine-4-carboxamide]	–
69	–	Cn1cc(-c2cc(F)cc(CNC(=O)c3nccc4nc(C5CCCC5)n(Cc5ccccc5)c34)c2)cn1 [Example 123, 3-benzyl-2-cyclopentyl-N-(3-fluoro-5-(1-methyl-1H-pyrazol-4-yl)benzyl)-3H-imidazo[4,5-c]pyridine-4-carboxamide]	–
79	–	COc1c(F)cc(-c2cnn(C)c2)cc1CNC(=O)c1ncnc2nc(C3CCCC3)n(C)c12 [Example 6, 8-cyclopentyl-N-(3-fluoro-2-methoxy-5-(1-methyl-1H-pyrazol-4-yl)benzyl)-7-methyl-7H-purine-6-carboxamide]	–
97	–	Cn1c(C2CCCC2)nc2ccnc(C(=O)NCc3ccccc3Cl)c21 [Example 85, N-(2-chlorobenzyl)-2-cyclopentyl-3-methyl-3H-imidazo[4,5-c]pyridine-4-carboxamide]	–
77	–	Cn1cc(-c2cc(F)cc(CNC(=O)c3nc(Cl)nc4nc(C5CCCC5)[nH]c34)c2)cn1 [Example 12, 2-chloro-8-cyclopentyl-N-(3-fluoro-5-(1-methyl-1H-pyrazol-4-yl)benzyl)-7H-purine-6-carboxamide]	–
83	–	Cc1cc(N2CC[C@@](C#N)(C3CC3)C2=O)cc(C(=O)NCc2cc(-c3cnn(C)c3)cc(C(F)(F)F)c2)n1 [Example 218, 4-((3S)-3-cyano-3-cyclopropyl-2-oxopyrrolidin-1-yl)-6-methyl-N-(3-(1-methyl-1H-pyrazol-4-yl)-5-(trifluoromethyl)benzyl)pyridine-2-carboxamide]	–
66	–	Cn1cc(-c2cc(F)cc(CNC(=O)c3cc(N4CC[C@@](C#N)(C5CC5)C4=O)cc(C4CC4)n3)c2)cn1 [Example 225, 4-((3S)-3-cyano-3-cyclopropyl-2-oxopyrrolidin-1-yl)-6-cyclopropyl-N-(3-fluoro-5-(1-methyl-1H-pyrazol-4-yl)benzyl)pyridine-2-carboxamide]	–
101	–	Cn1cc(-c2cc(F)cc(CNC(=O)c3nccc4nc(C5CCCC5)n(CC5CC5)c34)c2)cn1 [Example 114, 2-cyclopentyl-3-(cyclopropylmethyl)-N-(3-fluoro-5-(1-methyl-1H-pyrazol-4-yl)benzyl)-3H-imidazo[4,5-c]pyridine-4-carboxamide]	–
92	–	Cn1ncc2cccc(CNC(=O)c3ncnc4nc(C5CCCC5)n(C)c34)c21 [Example 21, 8-cyclopentyl-7-methyl-N-((1-methyl-1H-indazol-7-yl)methyl)-7H-purine-6-carboxamide]	–
